Laboratory results taken from patent US8664230B2, “Pyridopyrimidine derivatives and use thereof” (The Asan Foundation, priority 2011, dated 2014).

Tests used:
Assay in all cases: PI3 Kinase Activity/Inhibitor Assay (Millipore kit, competitive ELISA)
Format in all cases: biochemical
[1] = target: PI3Kδ (Homo sapiens (Human), UniProt O00329)
Text: (§1) The PI3 Kinase Activity/Inhibitor Assay Kit was purchased from Millipore. The dimethylsulfoxide was purchased from Sigma-Aldrich.
(§2) The PI3 Kinase Activity/Inhibitor Assay is a competitive assay used for the fast and sensitive quantitation of activity of the four class I PI3 kinases (p110 α, β, γ, δ). The PI3 Kinase Activity/Inhibitor Assay works on the principle that PI3 Kinase phosphorylates P1(3,4)P2 (PIP2), converting it to PI(3,4,5)P3 (PIP3). The PH domain of the protein GRP-1 binds PIP3 with high affinity and specificity. The kit includes this recombinant protein that is used as the capture protein. This protein binds to the glutathione plate and captures either the PIP3 generated as part of the kinase reaction or the biotinylated-PIP3 tracer included in the kit. The captured biotinylated-PIP3 is detected using streptavidin-HRP conjugate and a colorimetric read out (OD 450). The lower the signal, the higher the PI3 Kinase activity.
(§3) PI3-Kinase included in the Kit was diluted at the ratio of 1:10 with distilled water and stored on ice. The compound was prepared by diluting the stock compound to 100× of the final concentration and then diluted again at the ratio of 1:50 to make 2× of the final concentration with distilled water.
(§4) The prepared PI3-Kinase (5 μL/well) and the compound (5 μL/well) were added to Glutathione-Coated Plate and pre-incubated at room temperature for 10 minutes. After adding 5 μL of 5× Kinase reaction buffer per well, PIP2 was diluted at the ratio of 1:20 with distilled water and 5 μL were added into each well. Distilled water was added up to 25 μL, and the reaction mixture was incubated at room temperature for an hour. Biotinylated-PIP3 was diluted at the ratio of 1:18 with 1×TBS solution and 25 μL of the mixture were put in each well excluding the buffer control well. GRP1-GST was diluted at the ratio of 1:1000 with 1×TBS solution and 50 μL of it was added to every well. The mixture was incubated at room temperature for an hour.
(§5) After removing the solution contained in the wells, the wells were washed 4 times with 200 μL of 1×TBST. SA-HRP was diluted at the ratio of 1:2000 with 1×TBST, then 50 μL of it was added into every well and incubated at room temperature for an hour. Again after removing the solution, they were washed 5 times by adding 200 μL of 1×TBST to each well. 100 μL of TMB solution was added to every well. The plate was developed in the dark for 5-20 minutes. As blue color appeared, the reaction was stopped by adding 100 μL of stop solution to every well, and the plate was read at 450 nm with ELISA Reader (TECAN).
(§6) For the calculation of relative percentage to biotinylated-PIP3, we take the direct absorbance at 450 nm (A450) and set the positive Biotinylated-PIP3 wells as 100 percentage. All the other signals are divided by the Biotinylated-PIP3 average, and multiplied by 100 to show the relative percentage to the positive signal. Relative % to B-PIP3=(A450 of samples include buffer, kinase & inhibitors/A450 of Biotinylated-PIP3 average)×100
(§7) IC50 values were calculated from the values read at 450 nm by using Graphpad Prism 5 software.

[2] = target: PI3Kα (Homo sapiens (Human), UniProt P42336)
Text: as §1, §2, §3, §4, §5, §6, §7

[3] = target: PI3Kγ (Homo sapiens (Human), UniProt P48736)
Text: as §1, §2, §3, §4, §5, §6, §7

PI3Kγ, sequence (P48736 whole entry, species assumed): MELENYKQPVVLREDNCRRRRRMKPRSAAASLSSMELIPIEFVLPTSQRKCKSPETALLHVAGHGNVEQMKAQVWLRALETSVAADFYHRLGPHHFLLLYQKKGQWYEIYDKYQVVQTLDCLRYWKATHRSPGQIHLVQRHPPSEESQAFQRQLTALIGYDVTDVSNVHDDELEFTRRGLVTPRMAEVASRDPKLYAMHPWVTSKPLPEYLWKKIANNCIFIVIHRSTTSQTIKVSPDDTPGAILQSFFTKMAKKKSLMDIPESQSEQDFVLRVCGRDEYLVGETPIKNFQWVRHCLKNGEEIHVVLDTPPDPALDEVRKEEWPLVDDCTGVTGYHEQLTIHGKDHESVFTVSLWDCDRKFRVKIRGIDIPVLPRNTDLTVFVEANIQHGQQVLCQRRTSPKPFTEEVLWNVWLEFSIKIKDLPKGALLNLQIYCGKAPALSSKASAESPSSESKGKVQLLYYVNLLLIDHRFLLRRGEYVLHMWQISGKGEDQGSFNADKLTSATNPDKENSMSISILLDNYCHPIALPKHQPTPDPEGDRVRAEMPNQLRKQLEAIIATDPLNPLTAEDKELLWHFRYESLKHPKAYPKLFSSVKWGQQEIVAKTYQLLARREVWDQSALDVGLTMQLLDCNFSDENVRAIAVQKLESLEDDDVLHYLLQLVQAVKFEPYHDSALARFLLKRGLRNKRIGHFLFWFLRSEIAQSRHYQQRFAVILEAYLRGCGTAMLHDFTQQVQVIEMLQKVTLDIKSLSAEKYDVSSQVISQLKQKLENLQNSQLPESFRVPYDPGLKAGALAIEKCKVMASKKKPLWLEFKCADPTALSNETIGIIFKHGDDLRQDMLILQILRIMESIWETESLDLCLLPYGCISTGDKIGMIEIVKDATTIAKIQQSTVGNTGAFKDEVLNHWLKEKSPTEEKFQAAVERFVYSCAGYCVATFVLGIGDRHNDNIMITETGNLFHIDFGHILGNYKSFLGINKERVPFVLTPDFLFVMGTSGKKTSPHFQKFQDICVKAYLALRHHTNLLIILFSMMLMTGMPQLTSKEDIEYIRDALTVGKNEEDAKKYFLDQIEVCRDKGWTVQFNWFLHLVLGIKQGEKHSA
PI3Kα, sequence (P42336 whole entry, looked up, species assumed): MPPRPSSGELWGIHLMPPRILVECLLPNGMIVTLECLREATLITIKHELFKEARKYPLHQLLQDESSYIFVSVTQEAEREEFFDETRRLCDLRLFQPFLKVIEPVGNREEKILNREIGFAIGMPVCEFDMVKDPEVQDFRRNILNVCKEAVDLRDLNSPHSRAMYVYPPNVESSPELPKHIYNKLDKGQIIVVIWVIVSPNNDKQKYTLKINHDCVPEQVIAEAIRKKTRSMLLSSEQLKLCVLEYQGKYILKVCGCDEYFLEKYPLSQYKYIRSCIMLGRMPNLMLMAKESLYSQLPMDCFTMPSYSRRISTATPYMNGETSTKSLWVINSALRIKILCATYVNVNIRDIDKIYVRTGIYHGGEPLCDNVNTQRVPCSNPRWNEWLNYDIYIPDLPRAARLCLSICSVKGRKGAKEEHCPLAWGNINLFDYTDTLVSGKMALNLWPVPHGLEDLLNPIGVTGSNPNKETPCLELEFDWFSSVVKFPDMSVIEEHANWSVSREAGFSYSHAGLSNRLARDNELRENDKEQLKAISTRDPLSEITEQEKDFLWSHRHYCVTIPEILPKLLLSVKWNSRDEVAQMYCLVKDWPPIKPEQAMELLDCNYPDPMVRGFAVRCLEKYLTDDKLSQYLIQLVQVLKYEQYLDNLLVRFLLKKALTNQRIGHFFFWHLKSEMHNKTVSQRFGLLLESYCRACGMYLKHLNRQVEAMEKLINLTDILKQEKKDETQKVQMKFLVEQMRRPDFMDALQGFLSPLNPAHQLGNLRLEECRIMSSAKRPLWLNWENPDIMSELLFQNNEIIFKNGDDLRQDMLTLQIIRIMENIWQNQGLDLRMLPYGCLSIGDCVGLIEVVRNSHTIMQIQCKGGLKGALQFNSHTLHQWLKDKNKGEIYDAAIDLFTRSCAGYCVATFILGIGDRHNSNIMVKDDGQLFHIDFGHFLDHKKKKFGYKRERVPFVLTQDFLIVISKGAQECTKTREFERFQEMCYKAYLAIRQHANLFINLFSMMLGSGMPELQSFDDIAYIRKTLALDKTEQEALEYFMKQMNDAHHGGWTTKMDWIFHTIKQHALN
PI3Kα, sequence (P27986 whole entry partner, looked up, species assumed): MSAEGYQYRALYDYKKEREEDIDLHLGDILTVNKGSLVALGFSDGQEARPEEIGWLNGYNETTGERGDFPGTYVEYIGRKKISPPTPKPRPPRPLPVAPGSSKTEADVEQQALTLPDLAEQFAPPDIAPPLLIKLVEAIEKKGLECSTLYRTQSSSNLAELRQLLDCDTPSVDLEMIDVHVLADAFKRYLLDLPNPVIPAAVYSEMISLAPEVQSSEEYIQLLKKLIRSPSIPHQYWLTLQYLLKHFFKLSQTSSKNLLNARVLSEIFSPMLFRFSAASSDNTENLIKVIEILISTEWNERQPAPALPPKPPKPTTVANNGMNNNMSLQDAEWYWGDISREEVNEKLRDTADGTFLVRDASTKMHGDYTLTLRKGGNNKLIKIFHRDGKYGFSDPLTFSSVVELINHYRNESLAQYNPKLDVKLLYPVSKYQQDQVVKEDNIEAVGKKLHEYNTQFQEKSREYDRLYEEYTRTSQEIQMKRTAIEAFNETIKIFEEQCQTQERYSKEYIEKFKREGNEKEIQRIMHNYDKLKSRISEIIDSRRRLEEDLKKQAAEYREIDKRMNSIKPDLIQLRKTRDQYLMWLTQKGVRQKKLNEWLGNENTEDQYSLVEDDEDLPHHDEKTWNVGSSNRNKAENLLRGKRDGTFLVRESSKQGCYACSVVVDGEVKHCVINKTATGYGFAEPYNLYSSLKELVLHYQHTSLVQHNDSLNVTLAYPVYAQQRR
PI3Kδ, sequence (O00329 whole entry, species assumed): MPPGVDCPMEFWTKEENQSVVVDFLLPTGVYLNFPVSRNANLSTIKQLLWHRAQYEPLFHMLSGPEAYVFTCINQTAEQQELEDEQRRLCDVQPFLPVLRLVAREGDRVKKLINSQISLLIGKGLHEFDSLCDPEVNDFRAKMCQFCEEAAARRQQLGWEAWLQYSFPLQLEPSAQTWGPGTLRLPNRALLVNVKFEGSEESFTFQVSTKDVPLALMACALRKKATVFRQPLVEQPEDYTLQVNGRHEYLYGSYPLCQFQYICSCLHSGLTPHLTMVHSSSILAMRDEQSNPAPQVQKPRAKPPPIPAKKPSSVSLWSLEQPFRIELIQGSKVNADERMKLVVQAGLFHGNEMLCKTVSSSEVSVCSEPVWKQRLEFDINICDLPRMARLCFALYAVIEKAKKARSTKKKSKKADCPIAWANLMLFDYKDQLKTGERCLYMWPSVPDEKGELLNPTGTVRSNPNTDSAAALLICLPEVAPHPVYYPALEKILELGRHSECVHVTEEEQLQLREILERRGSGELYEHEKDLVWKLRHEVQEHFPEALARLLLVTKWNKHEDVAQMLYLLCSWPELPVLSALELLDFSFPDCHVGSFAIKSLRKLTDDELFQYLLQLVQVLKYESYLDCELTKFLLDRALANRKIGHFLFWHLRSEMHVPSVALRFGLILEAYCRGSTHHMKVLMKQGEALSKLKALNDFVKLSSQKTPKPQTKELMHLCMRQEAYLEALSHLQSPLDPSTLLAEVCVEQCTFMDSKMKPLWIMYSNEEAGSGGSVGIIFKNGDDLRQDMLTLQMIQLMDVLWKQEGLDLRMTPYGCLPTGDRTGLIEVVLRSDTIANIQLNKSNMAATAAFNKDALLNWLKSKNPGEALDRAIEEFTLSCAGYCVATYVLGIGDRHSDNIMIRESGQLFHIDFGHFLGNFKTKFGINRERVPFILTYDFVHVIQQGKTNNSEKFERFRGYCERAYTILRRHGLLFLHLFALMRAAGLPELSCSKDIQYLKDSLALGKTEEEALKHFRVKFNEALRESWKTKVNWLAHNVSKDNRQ
PI3Kδ, sequence (P27986 whole entry partner, species assumed): as the sequence (P27986 whole entry partner, looked up, species assumed) above

Work on O=S(=O)(Nc1cc(-c2ccc3ncnc(NC4CCOCC4)c3n2)cnc1Cl)c1ccc(F)cc1F yielded an IC50 [1] of less than 10 µM, an IC50 [2] of less than 10 µM and an IC50 [3] of less than 10 µM.
O=S(=O)(Nc1cncc(-c2ccc3ncnc(Oc4cccnc4)c3n2)c1)c1ccccc1 was tested, and the IC50 [1] was less than 10 µM, the IC50 [2] was less than 10 µM and the IC50 [3] was less than 1 µM.
For CN1CCC(Oc2ncnc3ccc(-c4cncc(NS(=O)(=O)c5ccccc5)c4)nc23)CC1, the IC50 [1] was less than 10 µM, the IC50 [2] was less than 10 µM and the IC50 [3] was less than 10 µM.
With O=S(=O)(Nc1cc(-c2ccc3ncnc(OC4CCOCC4)c3n2)cnc1Cl)c1ccc(F)cc1F the IC50 [1] was less than 1 µM, the IC50 [2] was less than 1 µM and the IC50 [3] was less than 1 µM.
CN1CCC(Oc2ncnc3ccc(-c4cnc(Cl)c(NS(=O)(=O)c5ccc(F)cc5F)c4)nc23)CC1 showed an IC50 [1] of less than 1 µM, an IC50 [2] of less than 1 µM and an IC50 [3] of less than 10 µM.
O=S(=O)(Nc1cncc(-c2ccc3ncnc(OC4CCOCC4)c3n2)c1)c1ccccc1 was tested, and the IC50 [1] was less than 10 µM, the IC50 [2] was less than 10 µM and the IC50 [3] was less than 1 µM.
